Like-named read-outs stand apart in the source and are kept apart here.
Columns and labels:
breast cancer [1] = conditions: cited from earlier work
breast cancer [2] = conditions: cited from earlier work; remark: listed apart in the source
breast cancer [3] = conditions: 5 years tamoxifen compared to no adjuvant treatment; cited from earlier work
primary breast tumors = assay: Gene expression analysis of breast cancer: RFS by HMGCR mRNA level in tamoxifen treated patients (GSE 9893); assay type: in vivo, human
Description: Data was collected from a previously performed microarray study, Chanrion et al, based on a patient cohort of 155 primary breast tumors obtained from patients who had undergone initial surgery between 1989 and 2001 at the Cancer Research Center of Val d'Aurelle in Montpellier, the Bergonie' Institute in Bordeaux, or the Department of Obstetrics and Gynecology of Turin.
The median follow-up time for all patients was 5.5 years. Eight tumors were ER negative, and six of these tumors were progesterone receptor (PR) positive. No patient received neoadjuvant systemic chemotherapy. […] 121 patients also received adjuvant radiotherapy. Raw gene expression data and clinical data were downloaded from Gene Expression Omnibus (http://www.ncbi.nlm.nih.gov/GEO/) (accession number GSE 9893). The log ratio of gene expression values was used without further transformation. For statistical analysis HMGCR mRNA expression levels were analysed as a continuous variable.

breast cancer [4] = conditions: cited from earlier work; remark: listed apart in the source
breast cancer [5] = conditions: patients with ER positive tumors, irrespective of lymph node status; five years adjuvant; cited from earlier work
[6] = test system: stage II invasive breast cancer; assay: Randomized premenopausal cohort: recurrence free survival, adjuvant tamoxifen vs no adjuvant endocrine treatment, by HMGCR protein status (IHC on TMA); assay type: in vivo, human; conditions: for outcome (RFS) of HMGCR positive and ER negative vs HMGCR negative and ER positive patients: tamoxifen treated cohort
Description: The inclusion criteria were pre-menopausal patients, or patients younger than 50 years, with stage II (pT2 N0 M0, pT1-2 N1 M0) invasive breast cancer treated by modified mastectomy or breast conserving surgery with axillary lymph node dissection. Post-operative radiotherapy (50 Gy) was administered after breastconserving surgery and all lymph node-positive patients received locoregional radiotherapy. […] The study design is described in detail elsewhere (Rydén L et al, Eur J Cancer, 2005, 41(2): 256-64). Ethical permission was obtained from the Local Ethics Committees at Lund and Linköping Universities.
Tissue blocks from 500 of the 564 patients could be retrieved for TMA-construction. All cases had been histopathologically re-evaluated on hematoxylin and eosin stained slides. TMA:s were constructed by sampling 2×0.6 mm cores per case from areas representative of invasive cancer, using an manual arraying device (MTA-1, Beecher Inc, WI, USA). […] IHC staining of ER and PR had been performed previously. In line with current clinical praxis, a cut-off at 10% positive nuclei was used to define hormone receptor positivity.
For statistical analyses, the cytoplasmic intensity (CI) level was evaluated, in line with what is described in Examples, Section 3 above. […] Two categories were defined: “HMGCR high” corresponding to CI=weak, moderate and strong and “HMGCR low” corresponding to CI=absent This classification of samples was used for RFS analysis according to the Kaplan-Meier estimator, and the log-rank test was used to compare survival in different strata. ER and PR negativity was defined as <10% positively staining nuclei, according to current clinical guidelines in Sweden. All statistical tests were two-sided, and p-values of <0.05 were considered significant. All calculations were made with the statistical package SPSS 17.0 (SPSS Inc. Illinois, USA).

[7] = test system: MCF-7 breast cancer cells; conditions: MCF-7 cells; cited from earlier work

CC/C(=C(\c1ccccc1)c1ccc(OCCN(C)C)cc1)c1ccccc1 [tamoxifen]
disease free survival, tamoxifen vs no adjuvant treatment (breast cancer [1]; older patients (≧60 years) with ERα+/PR+ tumors): significantly longer disease free survival
disease free survival, tamoxifen vs no adjuvant treatment (breast cancer [1]; younger patients (<60 years)): no significant effect
recurrence-free and overall survival in tamoxifen treated patients (breast cancer [2]; high expression (>75% nuclear fraction) of PR, irrespectively of ERα status): increased recurrence-free and overall survival
effect from tamoxifen treatment (breast cancer [2]; lower PR level, <75%): no positive effect
reduction in breast cancer specific mortality (breast cancer [3]): 34%
reduction in disease recurrence (breast cancer [3]): 41%
RFS of high vs low HMGCR mRNA expression (primary breast tumors; ER positive subjects only, adjuvant tamoxifen, FIG. 13b): improved RFS
RFS of high vs low HMGCR mRNA expression (primary breast tumors; all 155 patients, adjuvant tamoxifen 20 mg daily for 5 years, FIG. 13a): significantly better RFS
ERα positive patients who do not respond to tamoxifen treatment (breast cancer [4]): 30-40%
breast cancer mortality (breast cancer [5]): reduces the breast cancer mortality
RFS of HMGCR high vs HMGCR low category ([6]; ER positive tamoxifen treated subjects, FIG. 2a): significantly better RFS
effect of tamoxifen treatment on recurrence free survival ([6]; HMGCR negative and ER negative subjects, FIG. 10b): no positive effect
effect of tamoxifen treatment on recurrence free survival ([6]; HMGCR positive and ER negative subjects, FIG. 9a): improved survival
effect of tamoxifen treatment on recurrence free survival ([6]; HMGCR positive and ER negative, lymph node positive patients, FIG. 9b): further enhanced
tamoxifen impact on survival (RFS) ([6]; HMGCR positive and PR negative subjects, FIG. 12, not statistically significant): trend of tamoxifen impact on survival
effect of tamoxifen treatment on recurrence free survival ([6]; HMGCR positive or ER positive subjects, FIG. 10a): significantly positive effect
response to tamoxifen treatment (RFS) ([6]; PR negative and HMGCR negative subjects, FIG. 11b): no response
response to tamoxifen treatment (RFS) ([6]; PR positive and HMGCR positive subjects, FIG. 11a): significant response
RFS associated with HMGCR expression ([6]; lymph node positive patients who received tamoxifen, FIG. 4a, p=0.001): improved RFS
outcome (RFS) of HMGCR positive and ER negative vs HMGCR negative and ER positive patients ([6]; node positive subjects, FIG. 6a): better outcome
RFS of HMGCR high vs HMGCR low category ([6]; patients treated with tamoxifen, FIG. 1a, p=0.001): significantly better RFS
effect of tamoxifen treatment on recurrence free survival ([6]; patients with HMGCR high tumors, irrespective of ER status, tamoxifen vs no adjuvant endocrine treatment, FIG. 8a): significantly improved survival
effect of tamoxifen treatment on recurrence free survival ([6]; patients with HMGCR low tumors, irrespective of ER status, FIG. 8b): no impact on survival
effect of HMGCR level on RFS ([6]; tamoxifen treated ER negative subjects, FIG. 7a): positive effect on RFS
outcome (RFS) of HMGCR positive and ER negative vs HMGCR negative and ER positive patients ([6]; FIG. 3a): better outcome

CC[C@H](C)C(=O)O[C@H]1CCC=C2C=C[C@H](C)[C@H](CC[C@@H]3C[C@@H](O)CC(=O)O3)[C@H]21 [mevastatin]
induction of HMGCR activity [7]: 10- to 15 fold
induction of HMGCR mRNA expression [7]: 2.5- to 3.5 fold

Source: patent US8945832B2, “Treatment prediction involving HMGCR” (Atlas Antibodies AB, priority 2008, dated 2015)
